We go through 14 molecules from PubChem BioAssay AID328 (DTP/NCI, 2004).

This experiment deals with BDF1 mice, P388 leukemia ip, median survival T/C. The experiment in a line: NCI In Vivo Anticancer Drug Screen. Data for tumor model P388 Leukemia (intraperitoneal) in B6D2F1 (BDF1) mice. Conditions: endpoint: median survival time, higher = longer survival. In outline: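 Antitumour effect was judged in vivo: survival in drug-treated mice, normalised to that of vehicle-dosed controls, gives the reported T/C.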

[1] abbreviates: dose: 25.0 mg/kg/injection, schedule: Q01DX009 (ip), vehicle: saline with Tween-80.
Where [2] appears, read: dose: 50.0 mg/kg/injection, schedule: Q01DX009 (ip), vehicle: saline with Tween-80.
Setting [3] is: dose: 50.0 mg/kg/injection, schedule: Q04DX003 (ip), vehicle: saline with Tween-80.
Setting [4] is: dose: 100.0 mg/kg/injection, schedule: Q01DX009 (ip), vehicle: saline with Tween-80.
Setting [5] is: dose: 100.0 mg/kg/injection, schedule: Q04DX003 (ip), vehicle: saline with Tween-80.
[6] abbreviates: dose: 150.0 mg/kg/injection, schedule: Q04DX003 (ip), vehicle: saline.
[7] abbreviates: dose: 100.0 mg/kg/injection, schedule: Q04DX003 (ip), vehicle: Klucel (hydroxypropylcellulose) (HPC).
Where [8] appears, read: dose: 200.0 mg/kg/injection, schedule: Q04DX003 (ip), vehicle: Klucel (hydroxypropylcellulose) (HPC).
Where [9] appears, read: dose: 400.0 mg/kg/injection, schedule: Q04DX003 (ip), vehicle: Klucel (hydroxypropylcellulose) (HPC).
Setting [10] is: dose: 200.0 mg/kg/injection, schedule: Q01DX009 (ip), vehicle: saline with Tween-80.

“And” between values parts separate entries of the source, which are not always exact repeats. Equal values may be shown once. Toxic doses and inconclusive results are not listed.

For the molecule `C#CC(OC(=O)NC1CCCCC1)(c1ccccc1)c1ccccc1`, the T/C reads like this: (dose: 16.5 mg/kg/injection, schedule: Q01DX009 (ip), vehicle: saline with Tween-80) 98 % of control; under setting [1], 215 % of control; (dose: 37.5 mg/kg/injection, schedule: Q01DX009 (ip), vehicle: saline with Tween-80) 213 % of control; under setting [2], 190 % of control; (dose: 88.0 mg/kg/injection, schedule: Q04DX003 (ip), vehicle: saline with Tween-80) 183 % of control; (dose: 132.0 mg/kg/injection, schedule: Q04DX003 (ip), vehicle: saline with Tween-80) 187 % of control. For the setting “dose: 200.0 mg/kg/injection, schedule: Q04DX003 (ip), vehicle: saline with Tween-80”, the T/C is 116 % of control.
Take `O=C1C=CCCCC1`: the T/C runs as follows: under setting [1], 109 % of control; (dose: 25.0 mg/kg/injection, schedule: Q04DX003 (ip), vehicle: saline with Tween-80) 103 % of control; under setting [2], 109 % of control and 112 % of control; under setting [3], 88 % of control; under setting [4], 104 % of control; under setting [5], 100 % of control.
`CCOC(=O)CCC(NC(=O)c1ccc(N(C)S(=O)(=O)c2ccc(C)cc2)c(F)c1)C(=O)OCC` (configuration not stated): the T/C runs as follows: (dose: 75.0 mg/kg/injection, schedule: Q04DX003 (ip), vehicle: saline) 95 % of control; under setting [6], 108 % of control; (dose: 300.0 mg/kg/injection, schedule: Q04DX003 (ip), vehicle: saline) 100 % of control.
`Cc1ncc(CO)c(C)c1O`: the T/C reads like this: (dose: 12.5 mg/kg/injection, schedule: Q01DX010 (ip), vehicle: saline) 100 % of control; (dose: 25.0 mg/kg/injection, schedule: Q01DX010 (ip), vehicle: saline) 100 % of control; (dose: 50.0 mg/kg/injection, schedule: Q01DX010 (ip), vehicle: saline) 100 % of control; (dose: 100.0 mg/kg/injection, schedule: Q01DX010 (ip), vehicle: saline) 100 % of control.
`Cc1c[n+]([O-])ccc1[N+](=O)[O-]`: the T/C is, setting by setting: (dose: 25.0 mg/kg/injection, schedule: Q01DX009 (ip), vehicle: saline) 100 % of control; (dose: 50.0 mg/kg/injection, schedule: Q01DX009 (ip), vehicle: saline) 104 % of control; (dose: 50.0 mg/kg/injection, schedule: Q04DX003 (ip), vehicle: saline) 100 % of control; (dose: 100.0 mg/kg/injection, schedule: Q04DX003 (ip), vehicle: saline) 90 % of control and 95 % of control; under setting [6], 100 % of control; (dose: 200.0 mg/kg/injection, schedule: Q04DX003 (ip), vehicle: saline) 86 % of control.
For `CCC1(O)CC2CN(CCc3c([nH]c4ccccc34)C(C(=O)OC)(c3cc4c(cc3OC)N(C)C3C(O)(C(=O)NCCSSCCNC(=O)C5(O)C(O)C6(CC)C=CCN7CCC8(c9cc(C%10(C(=O)OC)CC%11CN(CCc%12c%10[nH]c%10ccccc%12%10)CC(O)(CC)C%11)c(OC)cc9N(C)C58)C76)C(O)C5(CC)C=CCN6CCC43C65)C2)C1` (configuration not stated), the T/C is, setting by setting: (dose: 250.0 micrograms/kg/injection, schedule: Q04DX003 (ip), vehicle: saline) 179 % of control; (dose: 432.0 micrograms/kg/injection, schedule: Q04DX003 (ip), vehicle: saline) 162 % of control; (dose: 500.0 micrograms/kg/injection, schedule: Q04DX003 (ip), vehicle: saline) 185 % of control; (dose: 648.0 micrograms/kg/injection, schedule: Q04DX003 (ip), vehicle: saline) 268 % of control; (dose: 720.0 micrograms/kg/injection, schedule: Q04DX003 (ip), vehicle: saline) 164 % of control; (dose: 1000.0 micrograms/kg/injection, schedule: Q04DX003 (ip), vehicle: saline) 224 % of control. The T/C was 244 % of control (dose: 1080.0 micrograms/kg/injection, schedule: Q04DX003 (ip), vehicle: saline); 171 % of control (dose: 1200.0 micrograms/kg/injection, schedule: Q04DX003 (ip), vehicle: saline); 155 % of control (dose: 1800.0 micrograms/kg/injection, schedule: Q04DX003 (ip), vehicle: saline); 221 % of control (dose: 2000.0 micrograms/kg/injection, schedule: Q04DX003 (ip), vehicle: saline).
For the molecule `C=C(C)C12OC3(c4ccccc4)OC1C1C4OC4(CO)C(O)C4(O)C(=O)C(C)=CC4C1(O3)C(C)C2OC(=O)/C=C/C=C/CCCCC` (configuration not stated), the T/C was 107 % of control (dose: 6.3 micrograms/kg/injection, schedule: Q## X009 (ip), vehicle: saline + alcohol); 103 % of control (dose: 12.5 micrograms/kg/injection, schedule: Q## X009 (ip), vehicle: saline + alcohol); 103 % of control (dose: 25.0 micrograms/kg/injection, schedule: Q## X009 (ip), vehicle: saline + alcohol); 106 % of control (dose: 200.0 micrograms/kg/injection, schedule: Q## X009 (ip), vehicle: saline + alcohol).
In the case of `Cc1ccc2c(c1)CC(C)([CH2][Hg][Cl])O2` (configuration not stated), the T/C by setting is: (dose: 3.0 mg/kg/injection, schedule: Q01DX009 (ip), vehicle: Klucel (hydroxypropylcellulose) (HPC)) 94 % of control; (dose: 3.0 mg/kg/injection, schedule: Q04DX003 (ip), vehicle: Klucel (hydroxypropylcellulose) (HPC)) 103 % of control; (dose: 6.0 mg/kg/injection, schedule: Q01DX009 (ip), vehicle: Klucel (hydroxypropylcellulose) (HPC)) 105 % of control; (dose: 6.0 mg/kg/injection, schedule: Q04DX003 (ip), vehicle: Klucel (hydroxypropylcellulose) (HPC)) 94 % of control; (dose: 12.0 mg/kg/injection, schedule: Q01DX009 (ip), vehicle: Klucel (hydroxypropylcellulose) (HPC)) 119 % of control; (dose: 12.0 mg/kg/injection, schedule: Q04DX003 (ip), vehicle: Klucel (hydroxypropylcellulose) (HPC)) 100 % of control.
In the case of `O=C(O)c1ccc(C(=O)c2ccccc2C(=O)O)cc1`, the T/C by setting is: (dose: 100.0 mg/kg/injection, schedule: Q01DX001 (ip), vehicle: Klucel (hydroxypropylcellulose) (HPC)) 95 % of control; (dose: 100.0 mg/kg/injection, schedule: Q01DX009 (ip), vehicle: Klucel (hydroxypropylcellulose) (HPC)) 91 % of control; under setting [7], 104 % of control; (dose: 200.0 mg/kg/injection, schedule: Q01DX001 (ip), vehicle: Klucel (hydroxypropylcellulose) (HPC)) 100 % of control; (dose: 200.0 mg/kg/injection, schedule: Q01DX009 (ip), vehicle: Klucel (hydroxypropylcellulose) (HPC)) 95 % of control; under setting [8], 104 % of control. The T/C is 95 % of control (dose: 400.0 mg/kg/injection, schedule: Q01DX001 (ip), vehicle: Klucel (hydroxypropylcellulose) (HPC)); 91 % of control (dose: 400.0 mg/kg/injection, schedule: Q01DX009 (ip), vehicle: Klucel (hydroxypropylcellulose) (HPC)); 109 % of control under setting [9].
For the molecule `COc1cccc2c1C(=O)c1c(O)c3c(c(O)c1C2=O)C[C@@](O)(/C(CO)=N/NC(=O)c1ccccc1)C[C@@H]3OC1CC(N)C(O)C(C)O1` (some centres not stated), the T/C reads like this: (dose: 3.12 mg/kg/injection, schedule: Q01DX009 (ip), vehicle: water) 180 % of control; (dose: 6.25 mg/kg/injection, schedule: Q01DX009 (ip), vehicle: water) 252 % of control; (dose: 12.5 mg/kg/injection, schedule: Q01DX009 (ip), vehicle: water) 267 % of control.
For `ClC(Cl)(Cl)c1nc2nccnc2[nH]1`, the T/C was 104 % of control (dose: 44.0 mg/kg/injection, schedule: Q04DX003 (ip), vehicle: Klucel (hydroxypropylcellulose) (HPC)); 109 % of control under setting [3]; 108 % of control (dose: 66.0 mg/kg/injection, schedule: Q04DX003 (ip), vehicle: Klucel (hydroxypropylcellulose) (HPC)); 109 % of control (dose: 66.0 mg/kg/injection, schedule: Q04DX003 (ip), vehicle: saline with Tween-80); 104 % of control under setting [5]; 100 % of control (dose: 150.0 mg/kg/injection, schedule: Q04DX003 (ip), vehicle: Klucel (hydroxypropylcellulose) (HPC)).
For the molecule `CN(C)c1ccc(/C=C/c2ccnc3ccc(Cl)cc23)cc1`, the T/C is 100 % of control under setting [2] and 100 % of control under setting [10].
Consider `Cc1cc(C)c2c(=O)[nH][nH]c2n1`, for which the T/C is 96 % of control under setting [4]; 100 % of control under setting [10]; 94 % of control (dose: 400.0 mg/kg/injection, schedule: Q01DX009 (ip), vehicle: saline with Tween-80).
As for `CCOC(=O)N(CC)c1ccccc1`, the T/C by setting is: under setting [7], 90 % of control; under setting [8], 104 % of control; under setting [9], 100 % of control.
